According to US9408848B2, “Fluorescent CDK inhibitors for treatment of cancer” (Georgetown University, priority 2008, dated 2016):
Entries after “also recorded” stand apart in the source; their conditions may differ. Read-outs that look alike come from different tables or passages of the source.

Columns and labels:
MCF-7 [1] = assay: Cell viability assay (WST-1); type: cell-based, human; conditions: MCF-7, WST-1, 48 h
Method: (§1) (10%), 2 mM L-glutamine, and 50 μg/mL each of antibiotics, namely penicillin, streptomycin, and neomycin at 37° C. in a humidified incubator containing 5% CO2
(§2) Briefly human breast cancer cells were seeded into a 96-well plate at 3000 cells per well in DMEM containing 10% FBS. Following 24 hours attachment period, compounds were dissolved in DMSO and serially diluted in tissue culture media and added to the cells in triplicate, and incubated for 48 h at 37° C. Control cells were treated with equal amount of DMSO. After 48 h incubation, cell viability was measured by WST-1 assay according to the manufacturer's instructions (Roche). […] The formazan absorbance, which correlates to the number of living cells, was measured at 450 nm and 630 nm as reference filter using a microplate reader. (Ultramark, Microplate Imaging System, Bio-Rad). The IC50 was calculated from the graph of the log of the compound concentration versus the fraction of the surviving cells.

MDA-MB-231 [2] = assay: Cell viability assay (WST-1); type: cell-based, human; conditions: read-out: IC50 (concentration yielding 50% growth inhibition), MDA-MB-231, WST-1, 48 h
Method: as §1, §2

CL 10.3 = assay: Effect on multidrug resistant cell lines, IC50 72 hours; type: cell-based; conditions: for IC50: 72 h, CL 10.3, Breast (MDR); for CL 10.3 IC50/MCF-7 IC50: ratio, 72 hours; for activity in multidrug resistance cell line: MCF7 versus CL 10.3
Description: (§3) The effect of VMY-1-103 on multidrug resistant cell lines was studied and compared with paclitaxel. Table 4 represents the IC50 of the compounds in the individual cell lines along with the ratio of the difference.

MCF-7 [3] = assay: as above; type: cell-based; conditions: Homo sapiens, MCF7, 72 h; MCF-7, Breast
Description: as §3

CDK1/cyclinB = target: T1, CDK1/cyclinB (Homo sapiens, UniProt P06493); assay: Kinase assay ([γ-33P]-ATP, histone H1); type: biochemical; conditions: 0.1 µM
T1 construct: purchased Millipore, Dundee, UK (screening service)
Method: (§4) The final reaction was carried out in a 25 μL solution.
(§5) Briefly assays were performed with a Biomek 2000 Laboratory Automation Workstation in a 96-well format (Beckman instruments, Palo Alto, Calif., U.S.A) for 40 min at ambient temperature in 25 μL incubations using [γ-^33P]-ATP. In a final reaction volume of 25 μL corresponding CDK/cyclin (h) (5-10 mU) was incubated with 8 mM MOPS pH 7.0, 0.2 mM EDTA, 0.1 mg/mL histone H1, 10 mM MgAcetate and [γ-^33P-ATP](specific activity approx. 500 cpm/pmol, concentration as required). The reaction was initiated by the addition of the MgATP mix. After incubation for 40 min at room temperature, the reaction was stopped by the addition of 5 μL of a 3% phosphoric acid solution.

CDK3/cyclinE = target: T2, CDK3/cyclinE (Homo sapiens, UniProt Q00526); assay: Kinase assay ([γ-33P]-ATP, histone H1); type: biochemical; conditions: compound 0.1 μM
T2 construct: purchased Millipore, Dundee, UK (screening service)
Method: as §4, §5

CDK7/cyclinH/MATI = target: T3, CDK7/cyclinH/MATI (Homo sapiens, UniProt P50613); assay: Kinase assay ([γ-33P]-ATP, histone H1); type: biochemical; conditions: for inhibition at 0.1 µM: read-out: % inhibition of kinase activity, CDK7/cyclinH/MATI
T3 construct: purchased Millipore, Dundee, UK (screening service)
Method: . The final reaction was carried out in a 25 μL solution. The respective kinases (at […] were incubated with 8 mM MOPS (pH 7.0), 0.2 mM EDTA, 0.1 mg/ml histone H1, 10 mM MgAcetate and [γ-33P-ATP] (specific activity approximately 500 cpm/pmol, concentration as required). The reaction was then initiated by the addition of the MgATP mix. The reaction was stopped after 40 min of incubation by adding 5 μL of a 3% phosphoric acid solution. 10 μL of the reaction was spotted onto a P30 filter mat and washed 3 times for 5 min in 75 mM phosphoric acid and one in methanol prior to drying and counted radioactivity by scintillation counting. […]. Table 1 summarizes the cytotoxic effects of VMY compounds and its controls on breast cancer cell line.
as §5, with “Kinase selectivity of compounds VMY-1-101 and VMY-1-103 were screened at Millipore, Dundee, UK. Briefly” for “Briefly”, “solution. From the reaction, 10 μL was spotted onto a P30 filtermat and washed three times for 5 minutes in 75 mM phosphoric acid and once in methanol prior to dying and scintillation counting.” for “solution.”

MCF-7 [4] = assay: Cell cycle analysis by flow cytometry (propidium iodide); type: cell-based, human; conditions: for % G1 / % S / % Sub-G1: MCF-7, 24 hrs, 5 μM
Method: (§6) 5 μM concentrations were used for all drugs tested. The cells were exposed to the vehicle (DMSO) or […] of the CDK inhibitors for 24 hrs. The cell cycle distribution was then assessed using standard procedures.

MDA-MB-231 [5] = assay: as above; type: cell-based, human; conditions: for % G1 / % S / % Sub-G1: MDA-MB-231, 24 hrs, 5 μM
Method: as §6

phospho-Cdc2 = assay: Western blot of G2/M cell cycle proteins; type: cell-based, human; conditions: MDA-MB-231, 10 μM, 1-24 h
Method: The expression levels principal component proteins, such as, phospho-Cdc2, Cdc2 and cyclin B were specific assessed.
Western blotting was performed according to literature procedure. […] Lysates were cleared by centrifugation at 12000 rpm for 15 min at 4° C. and protein was estimated by detergent compatible BCA protein assay kit (Pierce). Equivalent amounts of total proteins were resolved by SDS-PAGE (10%) and transferred to PVDF membrane. Membranes were blocked by 5% non-fat powdered milk in TBST overnight. Membranes were incubated with indicated primary antibodies for 2 hours followed by HRP-conjugated secondary antibodies for 1 hr and developed using enhanced chemiluminescence kit (Perkin Elmer).

MDA-MB-231 cells [6] = assay: Apoptotic signaling, Western blot of apoptosis related proteins; type: cell-based, human
Method: In order to understand whether VMY-1-101 and VMY-1-103 compounds were able to induce apoptotic cell death, the expression of anti- and pro-apoptotic proteins in MDA-MB-231 cells following treatment with 10 μM drugs for 48 hours was evaluated first. […] This is further confirmed with proapoptotic 116 kDa poly (ADP-ribose) polymerase protein (PARP) into its 89-kDa fragments. […].
Western blotting was performed according to literature procedure. In brief, cell pellets were collected at the indicated times after treatment with compounds, suspended in 100 μL of lysis buffer (50 mM Tris-HCl, 150 mM NaCl, 1 mM EGTA, 1 mM EDTA, 20 mM NaF, 100 mM Na3VO4, 0.5% NP-40, 1% Triton X-100, 1 mM PMSF, 5 μg/ml aprotinin, 5 μg/ml leupeptin), vortexed twice and incubated in an ice bath for 30 min. Lysates were cleared by centrifugation at 12000 rpm for 15 min at 4° C. and protein was estimated by detergent compatible BCA protein assay kit (Pierce). Equivalent amounts of total proteins were resolved by SDS-PAGE (10%) and transferred to PVDF membrane. Membranes were blocked by 5% non-fat powdered milk in TBST overnight. Membranes were incubated with indicated primary antibodies for 2 hours followed by HRP-conjugated secondary antibodies for 1 hr and developed using enhanced chemiluminescence kit (Perkin Elmer).

MDA-MB-231 cells [7] = assay: Reversibility of antiproliferative effect (24 h/MC/48 h, cell cycle by flow cytometry); conditions: MDA-MB-231, 5 μM and 10 μM, 24 h then 48 h drug free medium
Method: The cell cycle distribution was then analyzed by flow cytometry.
The effect of CDK inhibitors on cell cycle progression was analyzed by flow cytometry. […] Cells were trypsinized, centrifuged (2000 rpm) and cell pellets were collected. […] The cell cycle distribution was evaluated on DNA plots using the Modfit software (Verity softwarehouse, Topsham, Me.).

T3 sequence (P50613 whole entry): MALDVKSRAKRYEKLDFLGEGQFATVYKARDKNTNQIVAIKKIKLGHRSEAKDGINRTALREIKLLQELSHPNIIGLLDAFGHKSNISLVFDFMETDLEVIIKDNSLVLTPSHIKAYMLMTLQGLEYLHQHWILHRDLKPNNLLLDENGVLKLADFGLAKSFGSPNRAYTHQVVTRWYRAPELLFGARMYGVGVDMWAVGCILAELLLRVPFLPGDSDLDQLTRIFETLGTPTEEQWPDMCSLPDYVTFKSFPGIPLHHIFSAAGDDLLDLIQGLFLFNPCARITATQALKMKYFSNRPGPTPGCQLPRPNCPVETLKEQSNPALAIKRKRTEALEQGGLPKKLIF
T3 sequence (P51946 whole entry partner): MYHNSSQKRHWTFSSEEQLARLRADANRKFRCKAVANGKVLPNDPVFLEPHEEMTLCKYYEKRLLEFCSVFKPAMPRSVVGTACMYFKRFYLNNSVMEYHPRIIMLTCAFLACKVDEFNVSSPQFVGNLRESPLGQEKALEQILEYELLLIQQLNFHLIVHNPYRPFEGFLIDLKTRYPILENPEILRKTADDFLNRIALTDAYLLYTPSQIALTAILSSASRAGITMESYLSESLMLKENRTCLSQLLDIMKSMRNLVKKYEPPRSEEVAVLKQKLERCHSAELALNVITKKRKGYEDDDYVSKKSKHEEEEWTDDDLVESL
T3 sequence (P51948 whole entry partner): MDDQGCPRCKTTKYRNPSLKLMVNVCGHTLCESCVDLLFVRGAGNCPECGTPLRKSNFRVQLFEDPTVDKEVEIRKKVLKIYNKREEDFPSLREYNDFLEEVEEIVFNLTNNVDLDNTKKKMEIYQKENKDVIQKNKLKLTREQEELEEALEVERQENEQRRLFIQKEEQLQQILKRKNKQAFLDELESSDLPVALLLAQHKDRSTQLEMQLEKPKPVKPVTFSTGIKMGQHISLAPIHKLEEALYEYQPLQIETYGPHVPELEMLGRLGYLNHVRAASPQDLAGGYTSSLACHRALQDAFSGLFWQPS
T1 sequence (P06493 whole entry): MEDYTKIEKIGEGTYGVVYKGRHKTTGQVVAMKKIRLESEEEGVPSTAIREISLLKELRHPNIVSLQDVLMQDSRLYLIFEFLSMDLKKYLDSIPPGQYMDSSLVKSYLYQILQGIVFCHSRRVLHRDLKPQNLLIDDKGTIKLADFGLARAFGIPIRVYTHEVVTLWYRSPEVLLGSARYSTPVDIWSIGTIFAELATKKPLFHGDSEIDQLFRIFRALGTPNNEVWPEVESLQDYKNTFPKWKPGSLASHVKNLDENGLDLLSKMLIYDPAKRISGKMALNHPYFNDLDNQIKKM
T1 sequence (P14635 whole entry partner): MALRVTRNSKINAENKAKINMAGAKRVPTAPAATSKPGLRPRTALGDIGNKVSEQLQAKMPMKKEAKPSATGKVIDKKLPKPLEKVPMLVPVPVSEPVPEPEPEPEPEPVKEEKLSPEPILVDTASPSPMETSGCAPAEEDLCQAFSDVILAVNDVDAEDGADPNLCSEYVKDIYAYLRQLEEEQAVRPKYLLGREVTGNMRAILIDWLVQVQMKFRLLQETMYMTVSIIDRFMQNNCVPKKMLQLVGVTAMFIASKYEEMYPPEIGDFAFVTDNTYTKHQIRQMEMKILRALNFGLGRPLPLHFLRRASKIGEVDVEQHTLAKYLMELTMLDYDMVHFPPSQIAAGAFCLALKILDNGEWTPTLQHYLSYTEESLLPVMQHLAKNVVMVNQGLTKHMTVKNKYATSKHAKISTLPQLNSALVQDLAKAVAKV
T2 sequence (Q00526 whole entry): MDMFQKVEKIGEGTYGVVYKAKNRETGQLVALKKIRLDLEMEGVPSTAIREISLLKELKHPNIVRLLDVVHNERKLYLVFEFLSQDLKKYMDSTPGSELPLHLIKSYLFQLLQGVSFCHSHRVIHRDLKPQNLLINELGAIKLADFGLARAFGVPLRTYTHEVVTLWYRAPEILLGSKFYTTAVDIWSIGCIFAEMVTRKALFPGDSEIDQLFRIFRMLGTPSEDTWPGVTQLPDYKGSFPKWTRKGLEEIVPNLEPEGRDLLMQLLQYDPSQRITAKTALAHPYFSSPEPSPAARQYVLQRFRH
T2 sequence (P24864 whole entry partner): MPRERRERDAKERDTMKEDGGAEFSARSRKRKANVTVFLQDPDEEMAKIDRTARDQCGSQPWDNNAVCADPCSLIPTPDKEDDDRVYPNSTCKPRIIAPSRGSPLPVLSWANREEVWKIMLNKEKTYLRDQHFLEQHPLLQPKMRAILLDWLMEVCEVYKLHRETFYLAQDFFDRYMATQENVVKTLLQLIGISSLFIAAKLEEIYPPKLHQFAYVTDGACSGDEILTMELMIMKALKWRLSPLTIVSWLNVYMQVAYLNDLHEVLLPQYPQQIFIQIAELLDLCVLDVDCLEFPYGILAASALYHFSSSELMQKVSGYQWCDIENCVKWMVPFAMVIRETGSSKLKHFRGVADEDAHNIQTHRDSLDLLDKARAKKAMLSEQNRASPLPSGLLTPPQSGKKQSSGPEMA

Row | IC50 (MDA-MB-231 [2]; Homo sapiens) | IC50 (CL 10.3) | CL 10.3 IC50/MCF-7 IC50 (CL 10.3) | IC50 (MCF-7 [3]) | Structure (SMILES) | % G1 (MCF-7 [4]) | % S (MCF-7 [4]) | % Sub-G1 (MCF-7 [4]) | % G1 (MDA-MB-231 [5]) | % S (MDA-MB-231 [5]) | % Sub-G1 (MDA-MB-231 [5]) | expression of phospho-Cdc2 (T161, Y15) (phospho-Cdc2) | further results
1 | > 100 µM | – | – | – | CN(C)c1cccc2c(S(=O)(=O)NCCN)cccc12 [Dansyl ethylenediamine, reference compound] | – | – | – | – | – | – | – | IC50 (MCF-7 [1]; Homo sapiens, MCF7, read-out: IC50 (concentration yielding 50% growth inhibition)): > 100 µM
2 | – | 47.5 µM | 2375 | 0.002 µM | CC(=O)O[C@H]1C(=O)[C@@]2(C)[C@H]([C@H](OC(=O)c3ccccc3)[C@]3(O)C[C@H](OC(=O)[C@H](O)[C@@H](NC(=O)c4ccccc4)c4ccccc4)C(C)=C1C3(C)C)[C@]1(OC(C)=O)CO[C@@H]1C[C@@H]2O [Paclitaxel, reference compound] | – | – | – | – | – | – | – | –
3 | – | – | – | – | CC(C)[C@H](CO)Nc1nc(Nc2ccc(C(=O)O)c(Cl)c2)c2ncn(C(C)C)c2n1 [Purvalanol B, reference compound] | 64.37 ± 0.57% | 20.54 ± 0.57% | 1.10 ± 0.03% | 58.69 ± 0.54% | 29.86 ± 0.70% | 1.19 ± 0.01% | no affect on the phospho-Cdc2 expression; also recorded: does not show any affect on expression of phosphor-Cdc2 | % inhibition of kinase activity, CDK1/cyclinB (CDK1/cyclinB): 78 ± 6%; % inhibition of kinase activity, CDK3/cyclinE (CDK3/cyclinE): 89 ± 0%; % inhibition of kinase activity, CDK7/cyclinH/MATI (CDK7/cyclinH/MATI; compound 0.1 μM): 66 ± 1%; IC50 (MCF-7 [1]; read-out: IC50 (concentration yielding 50% growth inhibition)): > 100 µM; IC50 (MDA-MB-231 [2]): > 100 µM
4 | – | – | – | – | CC[C@H](CO)Nc1nc(NCc2ccccc2)c2ncn(C(C)C)c2n1 [Roscovitine, 2-(R)-(1-ethyl-2-hydroxyethylamino)-6-benzylamino-9-isopropylpurine, reference compound] | 63.83 ± 0.58% | 19.88 ± 0.74% | 0.73 ± 0.02% | 57.59 ± 0.44% | 26.29 ± 0.32% | 1.22 ± 0.06% | – | inhibition at 0.1 µM (CDK7/cyclinH/MATI): 26 ± 5%; change in apoptosis protein levels (MDA-MB-231 cells [6]; MDA-MB-231, even at 40 μM): no change in protein levels; reversibility of G2/M arrest / antiproliferative effect (MDA-MB-231 cells [7]): went back to the normal stage after post incubation
5 | 4.06 ± 1.32 µM | 44.3 µM | 9.8 | 4.5 µM | CC(C)[C@H](CO)Nc1nc(Nc2ccc(C(=O)NCCNS(=O)(=O)c3cccc4c(N(C)C)cccc34)c(Cl)c2)c2ncn(C(C)C)c2n1 [VMY-1-103, 2-Chloro-N-[2-(5-dimethylamino-naphthalene-1-sulfonylamino)-ethyl]-4-[2-(1-hydroxymethyl-2-methyl-propylamino)-9-isopropyl-9H-purin-6-ylamino]-benzamide] | 61.02 ± 0.28% | 16.26 ± 0.24% | 2.09 ± 0.08% | 51.87 ± 0.80% | 25.15 ± 0.53% | 2.17 ± 0.18% | decrease the phosphorylation level of G2/M checkpoint proteins; also recorded: time-dependent decrease in expression of phospho-Cdc2 | inhibition at 0.1 µM (CDK7/cyclinH/MATI; compound 0.1 μM): 69 ± 2%; effect on cell cycle progression (G2/M phase) (MCF-7 [4]; MCF-7, 5, 10 μM, 24 hrs): induced the cell cycle progression in G2/M phase; effect on cell cycle progression (G2/M phase) (MDA-MB-231 [5]; MDA-MB-231, 5, 10 μM, 24 hrs): induced the cell cycle progression in G2/M phase; activity in multidrug resistance cell line (CL 10.3): moderate activity in a multidrug resistance cell line; activity in multidrug resistance cell line (CL 10.3; listed as VMY-103): comparable activity in both cell lines; substrate for p-glycoprotein (CL 10.3; inferred from MDR cell line (Table 4)): not a substrate for p-glycoprotein; PARP cleavage (MDA-MB-231 cells [6]; MDA-MB-231, 10 μM, 48 hours): moderate cleavage of the 116-kDa full length PARP into an 89-kDa fragment; protein level of full length caspase 3 and 7 (MDA-MB-231 cells [6]; MDA-MB-231, 10 μM, 48 hours): decrease in protein level of full length caspase 3 and 7
